Laboratory results from patent publication US7951814B2, “Quinazolinedione derivatives as TRPA1 modulators” (Glenmark Pharmaceuticals, S.A., priority 2008, dated 2011).

Target: T1, Human TRPA1 expressing CHO cells (Homo sapiens, UniProt O75762)
T1 construct: expressed in transfected cells; host or cells: CHO cells (under G-418 selection)
Assay: 45Calcium uptake assay: inhibition of AITC induced cellular uptake of radioactive calcium
Assay type: cell-based
Settings: AITC 30 μM, human TRPA1 CHO cells; for inhibition at 1 µM: 1.0 μM test compound, read-out: Percentage inhibition at 1.0 μM; for inhibition at 10 µM: 10.0 μM test compound, read-out: Percentage inhibition at 10.0 μM; for IC50: read-out: IC50 value (range)
Description: The illustrative examples of the present invention are screened for TRPA1 activity according to a modified procedure described in (a) Tóth, A. et al. Life Sciences (2003), 73, 487-498. ([…]. et al. Proc. Natl. Acad. Sci. U.S.A., (2007), 104, 13525-13530. The screening of the compounds can be carried out by other methods and procedures known to persons skilled in the art. Screening for TRPA1 Antagonist Using the ^45Calcium Uptake Assay The inhibition of TRPA1 receptor activation was measured as inhibition of allyl isothiocyanate (AITC) induced cellular uptake of radioactive calcium. […] Final concentration of DMSO in the reaction was 0.5% (v/v). […] Cells were seeded 24 h prior to the assay in 96 well plates so as to get 50,000 cells per well on the day of experiment. Cells were treated with test compounds for 10 min followed by addition of AITC at a final concentration of 30 μM and 5 μCi/ml ^45Ca^+2 for 3 min. […] Radioactivity in the lysate was measured in Packard Top count after addition of liquid scintillant. Concentration response curves were plotted as a % of maximal response obtained in the absence of test antagonist. IC50 value was calculated from concentration response curve by nonlinear regression analysis using GraphPad PRISM software.

T1 sequence (O75762 whole entry): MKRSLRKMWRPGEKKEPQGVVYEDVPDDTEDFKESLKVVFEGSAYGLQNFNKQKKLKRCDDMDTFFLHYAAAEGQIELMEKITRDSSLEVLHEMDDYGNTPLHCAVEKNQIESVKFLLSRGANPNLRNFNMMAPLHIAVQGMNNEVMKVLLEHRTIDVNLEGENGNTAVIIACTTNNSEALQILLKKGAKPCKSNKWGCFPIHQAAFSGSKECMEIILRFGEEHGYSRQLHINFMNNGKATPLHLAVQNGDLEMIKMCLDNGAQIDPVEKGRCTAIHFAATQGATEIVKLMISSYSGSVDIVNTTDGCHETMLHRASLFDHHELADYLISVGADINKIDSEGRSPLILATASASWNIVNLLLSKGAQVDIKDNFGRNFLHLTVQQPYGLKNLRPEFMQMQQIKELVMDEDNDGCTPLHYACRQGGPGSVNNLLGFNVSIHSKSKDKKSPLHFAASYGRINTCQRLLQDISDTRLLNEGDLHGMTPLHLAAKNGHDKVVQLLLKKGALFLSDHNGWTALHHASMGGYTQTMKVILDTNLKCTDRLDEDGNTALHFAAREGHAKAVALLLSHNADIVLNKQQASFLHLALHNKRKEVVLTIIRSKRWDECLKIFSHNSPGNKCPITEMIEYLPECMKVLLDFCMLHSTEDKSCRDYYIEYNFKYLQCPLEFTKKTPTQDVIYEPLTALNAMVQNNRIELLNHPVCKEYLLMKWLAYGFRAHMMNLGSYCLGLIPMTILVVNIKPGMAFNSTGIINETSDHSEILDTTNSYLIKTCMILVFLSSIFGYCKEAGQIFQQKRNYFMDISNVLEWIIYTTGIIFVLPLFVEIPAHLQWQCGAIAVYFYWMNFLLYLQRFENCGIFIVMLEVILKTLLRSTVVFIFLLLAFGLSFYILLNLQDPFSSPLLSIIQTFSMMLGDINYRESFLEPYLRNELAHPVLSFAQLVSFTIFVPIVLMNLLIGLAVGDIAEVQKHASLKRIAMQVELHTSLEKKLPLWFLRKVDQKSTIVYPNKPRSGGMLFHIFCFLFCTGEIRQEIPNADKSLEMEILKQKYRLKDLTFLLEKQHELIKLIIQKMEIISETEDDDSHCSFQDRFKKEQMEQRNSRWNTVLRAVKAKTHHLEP

Structure (SMILES)	inhibition at 1 µM [%]	inhibition at 10 µM [%]	IC50 [nM]
Cn1c(=O)c2c(CC(=O)Nc3nc(-c4ccc(F)c(F)c4)cs3)cccc2n(C)c1=O [Example 32, N1-[4-(3,4-Difluorophenyl)-1,3-thiazol-2-yl]-2-(1,3-dimethyl-2,4-dioxo-1,2,3,4-tetrahydro-5-quinazolinyl)acetamide]	53.7	66.3	–
Cn1c(=O)c2c(CC(=O)Nc3nc(-c4c(F)cccc4F)cs3)cccc2n(C)c1=O [Example 33, N1-[4-(2,6-Difluorophenyl)-1,3-thiazol-2-yl]-2-(1,3-dimethyl-2,4-dioxo-1,2,3,4-tetrahydro-5-quinazolinyl)acetamide]	50.4	79.8	–
Cn1c(=O)c2c(CC(=O)Nc3nc(-c4cc(F)cc(F)c4)cs3)cccc2n(C)c1=O [Example 34, N1-[4-(3,5-Difluorophenyl)-1,3-thiazol-2-yl]-2-(1,3-dimethyl-2,4-dioxo-1,2,3,4-tetrahydro-5-quinazolinyl)acetamide]	15.8	85	–
Cn1c(=O)c2c(CC(=O)Nc3nc(-c4cccc(F)c4F)cs3)cccc2n(C)c1=O [Example 35, N1-[4-(2,3-Difluorophenyl)-1,3-thiazol-2-yl]-2-(1,3-dimethyl-2,4-dioxo-1,2,3,4-tetrahydro-5-quinazolinyl)acetamide]	76.8	95.8	50.1 to 100
Cn1c(=O)c2c(CC(=O)Nc3nc(-c4ccc(C(F)(F)F)cc4F)cs3)cccc2n(C)c1=O [Example 36, N1-[4-(2-Fluoro-4-trifluoromethylphenyl)-1,3-thiazol-2-yl]-2-(1,3-dimethyl-2,4-1,2,3,4-tetrahydro-5-quinazolinyl)acetamide]	95.1	100	< 50
Cn1c(=O)c2c(CC(=O)Nc3nc(-c4ccc(F)c(C(F)(F)F)c4)cs3)cccc2n(C)c1=O [Example 38, N1-[4-(4-Fluoro-3-trifluoromethylphenyl)-1,3-thiazol-2-yl]-2-(1,3-dimethyl-2,4-dioxo-1,2,3,4-tetrahydro-5-quinazolinyl)acetamide]	98.5	98.7	< 50
Cn1c(=O)c2c(CC(=O)Nc3nc(-c4ccc(F)cc4C(F)(F)F)cs3)cccc2n(C)c1=O [Example 39, N1-[4-(4-Fluoro-2-trifluoromethylphenyl)-1,3-thiazol-2-yl]-2-(1,3-dimethyl-2,4-dioxo-1,2,3,4-tetrahydro-5-quinazolinyl)acetamide]	51.6	90.3	–
Cn1c(=O)c2c(CC(=O)Nc3nc(-c4cc(C(F)(F)F)ccc4F)cs3)cccc2n(C)c1=O [Example 40, N1-[4-(2-Fluoro-5-trifluoromethylphenyl)-1,3-thiazol-2-yl]-2-(1,3-dimethyl-2,4-dioxo-1,2,3,4-tetrahydro-5-quinazolinyl)acetamide]	82.7	98.7	> 100
Cn1c(=O)c2c(CC(=O)Nc3nc(-c4ccc(OC(F)(F)F)c(F)c4)cs3)cccc2n(C)c1=O [Example 41]	74.4	99.7	< 50
Cn1c(=O)c2c(CC(=O)Nc3nc(-c4ccc(F)c(OC(F)(F)F)c4)cs3)cccc2n(C)c1=O [Example 42]	98.3	99	50.1 to 100
COc1ccc(-c2csc(NC(=O)Cc3cccc4c3c(=O)n(C)c(=O)n4C)n2)cc1F [Example 43]	5.71	9.15	–
Cn1c(=O)c2c(CC(=O)Nc3nc(-c4ccc(OC(F)F)c(F)c4)cs3)cccc2n(C)c1=O [Example 44, N1-[4-(4-Difluoromethoxyl-3-fluorophenyl)-1,3-thiazol-2-yl]-2-(1,3-dimethyl-2,4-dioxo-1,2,3,4-tetrahydro-5-quinazolinyl)acetamide]	46.2	99.2	–
Cn1c(=O)c2c(CC(=O)Nc3nc(-c4ccc(Cl)cc4Cl)cs3)cccc2n(C)c1=O [Example 45, N1-[4-(2,4-Dichlorophenyl)-1,3-thiazol-2yl]-2-(1,3-dimethyl-2,4-dioxo-1,2,3,4-tetrahydro-5-quinazolinyl)acetamide]	82.1	95.5	> 100
Cn1c(=O)c2c(CC(=O)Nc3nc(-c4cc(Cl)ccc4Cl)cs3)cccc2n(C)c1=O [Example 46, N1-[4-(2,5-Dichlorophenyl)-1,3-thiazol-2-yl]-2-(1,3-dimethyl-2,4-dioxo-1,2,3,4-tetrahydro-5-quinazolinyl)acetamide]	84.3	87.9	> 100
Cn1c(=O)c2c(CC(=O)Nc3nc(-c4ccc(Cl)c(Cl)c4)cs3)cccc2n(C)c1=O [Example 47, N1-[4-(3,4-Dichlorophenyl)-1,3-thiazol-2yl]-2-(1,3-dimethyl-2,4-dioxo-1,2,3,4-tetrahydro-5-quinazolinyl)acetamide]	98.4	99.2	50.1 to 100
Cn1c(=O)c2c(CC(=O)Nc3nc(-c4cc(Cl)cc(Cl)c4)cs3)cccc2n(C)c1=O [Example 48, N1-[4-(3,5-Dichlorophenyl)-1,3-thiazol-2-yl]-2-(1,3-dimethyl-2,4-dioxo-1,2,3,4-tetrahydro-5-quinazolinyl)acetamide]	96.3	100	50.1 to 100
Cn1c(=O)c2c(CC(=O)Nc3nc(-c4ccc(F)c(Cl)c4)cs3)cccc2n(C)c1=O [Example 49, N1-[4-(3-Chloro-4-fluorophenyl)-1,3-thiazol-2-yl]-2-(1,3-dimethyl-2,4-dioxo-1,2,3,4-tetrahydro-5-quinazolinyl)acetamide]	98.6	99	50.1 to 100
Cn1c(=O)c2c(CC(=O)Nc3nc(-c4cccc(Cl)c4F)cs3)cccc2n(C)c1=O [Example 50, N1-[4-(3-Chloro-2-fluorophenyl)-1,3-thiazol-2-yl]-2-(1,3-dimethyl-2,4-dioxo-1,2,3,4-tetrahydro-5-quinazolinyl)acetamide]	95.3	98.9	50.1 to 100
Cn1c(=O)c2c(CC(=O)Nc3nc(-c4ccc(Cl)cc4F)cs3)cccc2n(C)c1=O [Example 51, N1-[4-(4-Chloro-2-fluorophenyl)-1,3-thiazol-2-yl]-2-(1,3-dimethyl-2,4-dioxo-1,2,3,4-tetrahydro-5-quinazolinyl)acetamide]	97.5	99.3	> 100
Cn1c(=O)c2c(CC(=O)Nc3nc(-c4cc(Cl)ccc4F)cs3)cccc2n(C)c1=O [Example 52, N1-[4-(5-Chloro-2-fluorophenyl)-1,3-thiazol-2-yl]-2-(1,3-dimethyl-2,4-dioxo-1,2,3,4-tetrahydro-5-quinazolinyl)acetamide]	92.5	95.3	> 100
Cn1c(=O)c2c(CC(=O)Nc3nc(-c4c(F)cccc4Cl)cs3)cccc2n(C)c1=O [Example 53, N1-[4-(2-Chloro-6-fluorophenyl)-1,3-thiazol-2-yl]-2-(1,3-dimethyl-2,4-dioxo-1,2,3,4-tetrahydro-5-quinazolinyl)acetamide]	33.1	88.6	–
Cn1c(=O)c2c(CC(=O)Nc3nc(-c4ccc(F)cc4Cl)cs3)cccc2n(C)c1=O [Example 54]	74.1	99.8	< 50
Cn1c(=O)c2c(CC(=O)Nc3nc(-c4ccc(Cl)c(C(F)(F)F)c4)cs3)cccc2n(C)c1=O [Example 55, N1-[4-(4-Chloro, 3-trifluoromethylphenyl)-1,3-thiazol-2-yl]-2-(1,3-dimethyl-2,4-dioxo-1,2,3,4-tetrahydro-5-quinazolinyl)acetamide]	100	100	< 50
Cn1c(=O)c2c(CC(=O)Nc3nc(-c4cc(C(F)(F)F)ccc4Cl)cs3)cccc2n(C)c1=O [Example 56, N1-[4-(2-Chloro-5-trifuoromethylphenyl)-1,3-thiazol-2-yl]-2-(1,3-dimethyl-2,4-dioxo-1,2,3,4-tetrahydro-5-quinazolinyl)propanamide]	85	99.8	> 100
Cn1c(=O)c2c(CC(=O)Nc3nc(-c4ccc(OC(F)F)c(Cl)c4)cs3)cccc2n(C)c1=O [Example 57, N1-{4-[3-Chloro-4-(difluoromethoxy)phenyl]-1,3-thiazol-2-yl}-2-(1,3-dimethyl-2,4-dioxo-1,2,3,4-tetrahydro-5-quinazolinyl)acetamide]	97.8	99.7	< 50
Cc1cc(-c2csc(NC(=O)Cc3cccc4c3c(=O)n(C)c(=O)n4C)n2)ccc1Cl [Example 58, N1-[4-(4-Chloro-3-methylphenyl)-1,3-thiazol-2yl]-2-(1,3-dimethyl-2,4-dioxo-1,2,3,4-tetrahydro-5-quinazolinyl)acetamide]	94.2	96.7	> 100
